Consider one compound from patent publication US7312358B2, “Pharmaceutically active sulfanilide derivatives” (Laboratoires Serono SA, priority 2000, dated 2007).

One assay addresses T1, hOT-R (Homo sapiens, UniProt P30559).
T1 construct: expressed in transfected cells; host or cells: HEK (Human Embryonic Kidney) cells
T1 sequence (P30559 1-389): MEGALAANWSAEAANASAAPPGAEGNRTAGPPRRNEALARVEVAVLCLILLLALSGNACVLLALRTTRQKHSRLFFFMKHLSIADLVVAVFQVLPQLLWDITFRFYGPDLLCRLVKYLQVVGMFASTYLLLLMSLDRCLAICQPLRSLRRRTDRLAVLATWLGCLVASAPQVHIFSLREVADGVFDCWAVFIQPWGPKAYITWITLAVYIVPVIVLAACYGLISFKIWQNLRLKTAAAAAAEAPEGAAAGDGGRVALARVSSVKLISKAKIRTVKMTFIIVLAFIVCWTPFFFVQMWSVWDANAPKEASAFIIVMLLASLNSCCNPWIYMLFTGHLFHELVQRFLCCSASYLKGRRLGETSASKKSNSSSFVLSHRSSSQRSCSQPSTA
Briefly: Inhibition of oxytocin mediated Ca2+-mobilization by FLIPR (HEK cells). Type of assay: cell-based. To be noted: fluo-4, OT 40 nM. The method, boiled down:
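HEK cells loaded with fluo-4 for 1.5–2 h; antagonist added at 10 pM–30 μM in HEPES-buffered saline, pH 7.4, then stimulated with 40 nM oxytocin. Intracellular Ca2+ mobilization read as fluorescence on FLIPR.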

Another assay has as its target hV1a (Homo sapiens, UniProt P37288). Briefly: In vitro competition binding assay on hV1a receptor with scintillating proximity assay. Further details: expressed in transfected cells; host or cells: CHO cells (membranes). To be noted: membranes from CHO cells expressing hV1a receptor; radiolabel [125I]-LVA; SPA; read-out: Binding Affinity Human V1a Ki. The method, then:
b) In Vitro Competition Binding Assay on hV1a Receptor with Scintillating Proximity Assay
This assays allows to determine the affinity of the test compounds for the V1a receptor. Membranes from CHO cells expressing the hV1a receptor were resuspended in buffer containing 50 mM Tris-HCl, pH 7.4, 5 mM MgCl2 and 0.1% BSA (w/v). The membranes (5-10 μg) were mixed with 0.2 mg wheat-germ aglutinin (WGA) SPA bead (type A) and 0.03 nM of the radiolabel [^125I]-LVA (LVA being Linear Vasopressin Antagonist and is an analogue of AVP for competition binding experiments). Non-specific binding was determined in the presence of 1 μM AVP. The total assay volume was 100 μl. The plates (Corning 0 NBS plate) were incubated at room temperature for 2 hours and counted on a Mibrobeta plate counter. The tests compounds were used in concentrations of 30 μM, 10 μM, 1 μM, 300 nM, 100 nM, 10 nM, 1 nM, 100 pM, 10 pM. The competition binding data were analysed using the iterative, nonlinear, curve-fitting program, Graph pad “Prism”.
The binding affinities to the Via receptor of the sulfanilide derivatives claimed in the formula I were assessed using the above described in vitro biological assay. The values refer to the binding affinity (IC50; HM) of the example compounds according to formula I to the V1a receptor. From the values shown in Table 1 it can be derived that said test compounds according to formula I do show a significant binding to the Via receptor.

For the next assay, the target named is T2, hOT receptor (Homo sapiens, UniProt P30559).
T2 construct: expressed in transfected cells; host or cells: HEK293EBNA cells (membranes)
T2 sequence (P30559 1-389): T1 sequence (P30559 1-389)
The experiment in a line: In vitro competition binding assay on hOT receptor with scintillating proximity assay. To be noted: membranes from HEK293EBNA cells expressing hOT receptor; radiolabel [125I]-OVTA; SPA; read-out: Binding Affinity Human OT-R Ki. An outline of the steps: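 SPA competition binding using HEK293EBNA membranes expressing hOT receptor (2-4 μg) with WGA beads and 0.2 nM [125I]-OVTA in 50 mM Tris-HCl pH 7.4, 5 mM MgCl2, 0.1% BSA, 30 min at room temperature. Non-specific binding with 1 μM oxytocin; compounds at 10 pM–30 μM; IC50 by nonlinear curve fitting.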

The structures appear in SMILES notation. pIC50, pKi: −log10 of the molar value.

Chain of hV1a (P37288 whole entry): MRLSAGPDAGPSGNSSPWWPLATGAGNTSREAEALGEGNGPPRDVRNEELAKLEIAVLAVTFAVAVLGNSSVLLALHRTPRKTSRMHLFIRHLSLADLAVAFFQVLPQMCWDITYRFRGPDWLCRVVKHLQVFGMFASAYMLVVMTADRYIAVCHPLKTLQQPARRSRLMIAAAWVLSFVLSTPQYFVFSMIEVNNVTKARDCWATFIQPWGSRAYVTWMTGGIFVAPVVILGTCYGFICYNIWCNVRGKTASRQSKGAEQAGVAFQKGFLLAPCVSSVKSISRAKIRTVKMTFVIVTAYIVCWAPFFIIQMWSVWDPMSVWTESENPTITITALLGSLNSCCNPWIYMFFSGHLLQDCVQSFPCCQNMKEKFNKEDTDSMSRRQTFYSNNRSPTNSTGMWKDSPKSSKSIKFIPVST

As for `CCOc1ccc(S(=O)(=O)N(CC(=O)N/N=C2/C(=O)Nc3ccccc32)c2ccc(C)cc2)cc1` [Example 5, 4-ethoxy-N-(4-methylphenyl)-N-{2-oxo-2-[2-(2-oxo-1,2-dihydro-3H-indol-3-ylidene)hydrazino]ethyl}benzenesulfonamide], the pIC50 – broadly, the IC50 on a negative log10 scale, so that one unit is a factor of ten – on hOT-R was 7.26. In addition, the negative-log Ki (pKi) (in general, −log10 of the Ki, conventionally taken in molar units) was 6.12 at hV1a and 7.76 at hOT receptor.
